Test results from patent US7420056B2, “Substituted bicyclic imidazo-3-ylamine compounds” (Gruenenthal GmbH, priority 2004, dated 2008).

Biological target: mGluR5 receptor (Sus scrofa, UniProt I3LUI7)
Test: Affinity for the mGluR5 receptor: inhibition of 3[H]-MPEP binding in pig brain homogenate
Settings: 10 μM compound, 5 nM 3[H]-MPEP, read-out: mGluR5 receptor inhibition of ^3[H]-MPEP binding [10 μM] in % at a concentration of the example compounds of 10 μM
Procedure, shortened: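 Test compounds were screened at 10 μM for displacement of 5 nM [3H]-MPEP from pig brain homogenate (450 μg protein, pH 8.0 Hepes buffer) over 60 min at room temperature. After filtration, scintillation counting gave the read-out. 10 μM unlabelled MPEP set nonspecific binding.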

Sequence of mGluR5 receptor (I3LUI7 19-1212): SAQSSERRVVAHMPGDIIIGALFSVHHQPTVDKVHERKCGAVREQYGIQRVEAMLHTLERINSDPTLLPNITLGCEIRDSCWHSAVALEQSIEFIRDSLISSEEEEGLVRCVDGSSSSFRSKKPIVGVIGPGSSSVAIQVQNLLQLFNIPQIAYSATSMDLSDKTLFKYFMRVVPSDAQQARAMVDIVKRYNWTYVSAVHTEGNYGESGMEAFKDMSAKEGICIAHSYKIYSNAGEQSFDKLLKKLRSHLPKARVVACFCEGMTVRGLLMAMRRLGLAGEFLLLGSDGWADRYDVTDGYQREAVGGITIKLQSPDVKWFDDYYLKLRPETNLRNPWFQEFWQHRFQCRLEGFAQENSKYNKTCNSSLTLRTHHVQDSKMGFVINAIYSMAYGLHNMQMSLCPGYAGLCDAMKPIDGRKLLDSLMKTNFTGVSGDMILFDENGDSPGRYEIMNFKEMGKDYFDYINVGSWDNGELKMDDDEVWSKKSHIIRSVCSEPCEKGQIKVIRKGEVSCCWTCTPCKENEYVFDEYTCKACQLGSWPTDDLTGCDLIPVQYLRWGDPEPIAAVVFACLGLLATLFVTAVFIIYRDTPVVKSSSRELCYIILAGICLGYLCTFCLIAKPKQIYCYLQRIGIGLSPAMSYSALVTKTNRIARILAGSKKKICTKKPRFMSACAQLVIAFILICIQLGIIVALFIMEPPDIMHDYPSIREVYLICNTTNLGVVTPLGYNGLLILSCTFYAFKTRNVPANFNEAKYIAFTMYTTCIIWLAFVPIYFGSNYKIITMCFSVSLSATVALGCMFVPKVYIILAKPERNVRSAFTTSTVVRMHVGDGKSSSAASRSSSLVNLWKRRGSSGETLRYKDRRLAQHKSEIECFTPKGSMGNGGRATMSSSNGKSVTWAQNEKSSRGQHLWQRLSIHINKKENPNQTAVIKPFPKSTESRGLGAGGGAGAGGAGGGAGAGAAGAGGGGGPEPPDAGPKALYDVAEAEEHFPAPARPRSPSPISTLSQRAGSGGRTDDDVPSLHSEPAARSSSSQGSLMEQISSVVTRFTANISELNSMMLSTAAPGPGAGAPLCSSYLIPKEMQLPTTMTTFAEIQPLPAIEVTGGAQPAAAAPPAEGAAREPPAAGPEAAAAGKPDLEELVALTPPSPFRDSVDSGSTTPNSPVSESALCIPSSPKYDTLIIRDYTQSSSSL

SMILES	inhibition at 10 µM [%]
CC(C)(C)CC(C)(C)Nc1c(-c2ccc(C#Cc3ccccn3)cc2)nc2c(Cl)cc(C(F)(F)F)cn12 [Example 241, 8-chloro-2-(4-(pyridin-2-ylethynyl)phenyl)-6-(trifluoromethyl)-N-(2,4,4-trimethylpentan-2-yl)imidazo[1,2-a]pyridin-3-amine]	65
Fc1ccc(Nc2c(-c3ccc(C#Cc4ccccn4)cc3)nc3cnccn23)cc1 [Example 242, N-(4-fluorophenyl)-2-(4-(pyridin-2-ylethynyl)phenyl)imidazo[1,2-a]pyrazin-3-amine]	91
Cc1cc(Br)c2nc(-c3ccc(C#Cc4ccccn4)o3)c(NC3CCCC3)n2c1 [Example 246, 8-bromo-N-cyclopentyl-6-methyl-2-(5-(pyridin-2-ylethynyl)furan-2-yl)imidazo[1,2-a]pyridin-3-amine]	74
CC(C)(C)CC(C)(C)Nc1c(-c2ccc(C#Cc3ccccn3)o2)nc2cnccn12 [Example 248, 2-(5-(pyridin-2-ylethynyl)furan-2-yl)-N-(2,4,4-trimethylpentan-2-yl)imidazo[1,2-a]pyrazin-3-amine]	68
Cc1cc(Br)c2nc(-c3ccc(C#Cc4ccccn4)cc3)c(NC3CCCC3)n2c1 [Example 250, 8-bromo-N-cyclopentyl-6-methyl-2-(4-(pyridin-2-ylethynyl)phenyl)imidazo[1,2-a]pyridin-3-amine]	69
CC(C)(C)CC(C)(C)Nc1c(-c2ccc(C#Cc3ccccn3)s2)nc2ncccn12 [Example 253, 2-(5-(pyridin-2-ylethynyl)thiophen-2-yl)-N-(2,4,4-trimethylpentan-2-yl)imidazo[1,2-a]pyrimidin-3-amine]	73
CC(C)(C)CC(C)(C)Nc1c(-c2cccc(C#Cc3ccccn3)c2)nc2ncccn12 [Example 255, 2-(3-(pyridin-2-ylethynyl)phenyl)-N-(2,4,4-trimethylpentan-2-yl)imidazo[1,2-a]pyrimidin-3-amine]	81
CC(C)(C)CC(C)(C)Nc1c(-c2ccc(C#Cc3ccccc3)nc2)nc2ncccn12 [Example 256, 2-(6-(phenylethynyl)pyridin-3-yl)-N-(2,4,4-trimethylpentan-2-yl)imidazo[1,2-a]pyrimidin-3-amine]	43
C(#Cc1ccc(-c2nc3ncccn3c2NC2CCCC2)o1)c1ccccn1 [Example 257, N-cyclopentyl-2-(5-(pyridin-2-ylethynyl)furan-2-yl)imidazo[1,2-a]pyrimidin-3-amine]	77
CC(C)(C)Nc1c(-c2ccc(C#Cc3ccccn3)o2)nc2ncccn12 [Example 258, N-tert-butyl-2-(5-(pyridin-2-ylethynyl)furan-2-yl)imidazo[1,2-a]pyrimidin-3-amine]	86
CC(C)(C)Nc1c(-c2cccc(C#Cc3ccccn3)c2)nc2ccccn12 [Example 261, N-tert-butyl-2-(3-(pyridin-2-ylethynyl)phenyl)imidazo[1,2-a]pyridin-3-amine]	79
CC(C)(C)CC(C)(C)Nc1c(-c2cccc(C#Cc3ccccn3)c2)nc2ccccn12 [Example 262, 2-(3-(pyridin-2-ylethynyl)phenyl)-N-(2,4,4-trimethylpentan-2-yl)imidazo[1,2-a]pyridin-3-amine]	72
Fc1ccc(Nc2c(-c3cccc(C#Cc4ccccn4)c3)nc3ccccn23)cc1 [Example 263, N-(4-fluorophenyl)-2-(3-(pyridin-2-ylethynyl)phenyl)imidazo[1,2-a]pyridin-3-amine]	85
CC(C)(C)Nc1c(-c2ccc(C#Cc3ccccn3)cc2)nc2ccccn12 [Example 264, N-tert-butyl-2-(4-(pyridin-2-ylethynyl)phenyl)imidazo[1,2-a]pyridin-3-amine]	83
Cc1nc(C#Cc2ccccc2)ccc1-c1nc2ccccn2c1Nc1ccc(F)cc1 [Example 266, N-(4-fluorophenyl)-2-(2-methyl-6-(phenylethynyl)pyridin-3-yl)imidazo[1,2-a]pyridin-3-amine]	63
Cc1ccc2nc(-c3ccc(C#Cc4ccccn4)s3)c(NC3CCCC3)n2c1 [Example 267, N-cyclopentyl-6-methyl-2-(5-(pyridin-2-ylethynyl)thiophen-2-yl)imidazo[1,2-a]pyridin-3-amine]	85
Cc1ccc2nc(-c3ccc(C#Cc4ccccn4)s3)c(NC(C)(C)C)n2c1 [Example 268, N-tert-butyl-6-methyl-2-(5-(pyridin-2-ylethynyl)thiophen-2-yl)imidazo[1,2-a]pyridin-3-amine]	75
Cc1ccc2nc(-c3ccc(C#Cc4ccccn4)s3)c(NC(C)(C)CC(C)(C)C)n2c1 [Example 270, 6-methyl-2-(5-(pyridin-2-ylethynyl)thiophen-2-yl)-N-(2,4,4-trimethylpentan-2-yl)imidazo[1,2-a]pyridin-3-amine]	93
Cc1ccc2nc(-c3ccc(C#Cc4ccccc4)nc3C)c(NC(C)(C)CC(C)(C)C)n2c1 [Example 271, 6-methyl-2-(2-methyl-6-(phenylethynyl)pyridin-3-yl)-N-(2,4,4-trimethylpentan-2-yl)imidazo[1,2-a]pyridin-3-amine]	31
Cc1ccc2nc(-c3ccc(C#Cc4ccccn4)o3)c(NC3CCCC3)n2c1 [Example 272, N-cyclopentyl-6-methyl-2-(5-(pyridin-2-ylethynyl)furan-2-yl)imidazo[1,2-a]pyridin-3-amine]	72
Cc1ccn2c(NC(C)(C)CC(C)(C)C)c(-c3ccc(C#Cc4ccccn4)s3)nc2c1 [Example 275, 7-methyl-2-(5-(pyridin-2-ylethynyl)thiophen-2-yl)-N-(2,4,4-trimethylpentan-2-yl)imidazo[1,2-a]pyridin-3-amine]	85
Cc1ccn2c(NC(C)(C)C)c(-c3cccc(C#Cc4ccccn4)c3)nc2c1 [Example 276, N-tert-butyl-7-methyl-2-(3-(pyridin-2-ylethynyl)phenyl)imidazo[1,2-a]pyridin-3-amine]	93
Cc1ccn2c(Nc3ccc(F)cc3)c(-c3cccc(C#Cc4ccccn4)c3)nc2c1 [Example 277, N-(4-fluorophenyl)-7-methyl-2-(3-(pyridin-2-ylethynyl)phenyl)imidazo[1,2-a]pyridin-3-amine]	95

Further lines, results first:

inhibition at 10 µM [%]	SMILES
80	Cc1nc(C#Cc2ccccc2)ccc1-c1nc2cnccn2c1NC1CCCC1 [Example 243, N-cyclopentyl-2-(2-methyl-6-(phenylethynyl)pyridin-3-yl)imidazo[1,2-a]pyrazin-3-amine]
54	Cc1nc(C#Cc2ccccc2)ccc1-c1nc2cnccn2c1NC1CCCCC1 [Example 244, N-cyclohexyl-2-(2-methyl-6-(phenylethynyl)pyridin-3-yl)imidazo[1,2-a]pyrazin-3-amine]
92	C(#Cc1ccc(-c2nc3cnccn3c2NC2CCCC2)o1)c1ccccn1 [Example 245, N-cyclopentyl-2-(5-(pyridin-2-ylethynyl)furan-2-yl)imidazo[1,2-a]pyrazin-3-amine]
83	C(#Cc1ccc(-c2nc3cnccn3c2NC2CCCCC2)o1)c1ccccn1 [Example 247, N-cyclohexyl-2-(5-(pyridin-2-ylethynyl)furan-2-yl)imidazo[1,2-a]pyrazin-3-amine]
80	Cc1cccc(C#Cc2cccc(-c3nc4cnccn4c3NC3CCCC3)c2)n1 [Example 249, N-cyclopentyl-2-(3-((6-methylpyridin-2-yl)ethynyl)phenyl)imidazo[1,2-a]pyrazin-3-amine]
80	Cc1cccc(C#Cc2cccc(-c3nc4cnccn4c3NC3CCCCC3)c2)n1 [Example 251, N-cyclohexyl-2-(3-((6-methylpyridin-2-yl)ethynyl)phenyl)imidazo[1,2-a]pyrazin-3-amine]
86	Cc1cccc(C#Cc2cccc(-c3nc4cnccn4c3Nc3ccc(F)cc3)c2)n1 [Example 252, N-(4-fluorophenyl)-2-(3-((6-methylpyridin-2-yl)ethynyl)phenyl)imidazo[1,2-a]pyrazin-3-amine]
77	C(#Cc1ccccn1)c1cccc(-c2nc3ncccn3c2NC2CCCCC2)c1 [Example 254, N-cyclohexyl-2-(3-(pyridin-2-ylethynyl)phenyl)imidazo[1,2-a]pyrimidin-3-amine]
82	Cc1cccc(C#Cc2cccc(-c3nc4ncccn4c3NC3CCCC3)c2)n1 [Example 259, N-cyclopentyl-2-(3-((6-methylpyridin-2-yl)ethynyl)phenyl)imidazo[1,2-a]pyrimidin-3-amine]
64	C(#Cc1ccccn1)c1cccc(-c2nc3ccccn3c2NC2CCCC2)c1 [Example 260, N-cyclopentyl-2-(3-(pyridin-2-ylethynyl)phenyl)imidazo[1,2-a]pyridin-3-amine]
68	Cc1nc(C#Cc2ccccc2)ccc1-c1nc2ccccn2c1NC1CCCC1 [Example 265, N-cyclopentyl-2-(2-methyl-6-(phenylethynyl)pyridin-3-yl)imidazo[1,2-a]pyridin-3-amine]
94	Cc1ccc2nc(-c3ccc(C#Cc4ccccn4)s3)c(NC3CCCCC3)n2c1 [Example 269, N-cyclohexyl-6-methyl-2-(5-(pyridin-2-ylethynyl)thiophen-2-yl)imidazo[1,2-a]pyridin-3-amine]
84	Cc1ccc2nc(-c3cccc(C#Cc4cccc(C)n4)c3)c(NC3CCCCC3)n2c1 [Example 273, N-cyclohexyl-6-methyl-2-(3-((6-methylpyridin-2-yl)ethynyl)phenyl)imidazo[1,2-a]pyridin-3-amine]
85	Cc1ccn2c(NC3CCCCC3)c(-c3ccc(C#Cc4ccccn4)s3)nc2c1 [Example 274, N-cyclohexyl-7-methyl-2-(5-(pyridin-2-ylethynyl)thiophen-2-yl)imidazo[1,2-a]pyridin-3-amine]
